Test results published in US20080300243A1, “Amide Derivatives as Ion-Channel Ligands and Pharmaceutical Compositions and Methods of Using the Same” (priority 2005, published 2008).

Legend:
VR1 [1] = target: T1, VR1 (Homo sapiens, UniProt Q8NER1); test: Acid stimulation assay (FDSS 6000); type: cell-based; parameters: host or cells: unspecified cell suspension; settings: final assay buffer pH5.8, 15 min pre-incubation
Method: The Acid-induced changes in the intracellular calcium concentration were monitored using FDSS 6000 (Hamamatsu Photonics, Japan), a fluorometric imaging system. The cell suspension in resting buffer (HBSS supplemented with […], pH 7.4) was pre-incubated with varying concentrations of the test compounds or resting buffer (buffer control) for 15 minutes at room temperature under dark conditions. The cells were automatically added the stimulating solution (HBSS supplemented with MES, final assay buffer pH5.8) by the FDSS 6000.
Target sequence in this assay (Q8NER1 whole entry, species assumed): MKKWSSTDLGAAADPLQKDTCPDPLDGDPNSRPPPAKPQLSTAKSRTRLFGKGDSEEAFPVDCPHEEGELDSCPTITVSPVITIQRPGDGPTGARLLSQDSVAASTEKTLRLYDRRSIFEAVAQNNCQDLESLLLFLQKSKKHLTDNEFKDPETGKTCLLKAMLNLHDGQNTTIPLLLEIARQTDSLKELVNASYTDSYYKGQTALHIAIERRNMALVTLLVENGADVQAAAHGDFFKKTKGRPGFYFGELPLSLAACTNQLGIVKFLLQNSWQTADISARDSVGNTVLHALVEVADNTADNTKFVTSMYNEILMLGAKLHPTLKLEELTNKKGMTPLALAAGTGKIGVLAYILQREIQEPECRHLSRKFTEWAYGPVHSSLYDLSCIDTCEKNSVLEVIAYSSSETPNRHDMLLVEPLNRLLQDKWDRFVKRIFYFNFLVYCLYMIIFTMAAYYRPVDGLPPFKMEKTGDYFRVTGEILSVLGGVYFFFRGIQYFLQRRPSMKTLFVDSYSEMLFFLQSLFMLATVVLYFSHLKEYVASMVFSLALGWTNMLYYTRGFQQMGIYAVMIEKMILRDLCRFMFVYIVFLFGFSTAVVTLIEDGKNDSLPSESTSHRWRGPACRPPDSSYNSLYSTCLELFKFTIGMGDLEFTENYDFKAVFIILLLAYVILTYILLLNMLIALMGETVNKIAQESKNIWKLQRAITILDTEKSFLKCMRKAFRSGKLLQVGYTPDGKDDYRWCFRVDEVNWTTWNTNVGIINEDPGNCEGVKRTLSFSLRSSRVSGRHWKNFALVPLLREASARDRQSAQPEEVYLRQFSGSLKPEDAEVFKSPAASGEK

[2] = Half-life in human liver microsomes (HLM); type: in vitro ADME; settings: human, human liver microsomes (HLM, HL101), pH 7.4; 1 μM compound, 0.78 mg/mL HLM, 37° C., NADPH
Method: Test compounds (1 μM) were incubated with 3.3 mM MgCl2 and 0.78 mg/mL HLM (HL101) in 100 mM potassium phosphate buffer (pH 7.4) at 37° C. on the 96-deep well plate. The reaction mixture was split into two groups, a non-P450 and a P450 group. NADPH was only added to the reaction mixture of the P450 group. An aliquot of samples of P450 group was collected at 0, 10, 30, and 60 min time point, where 0 min time point indicated the time when NADPH was added into the reaction mixture of P450 group. An aliquot of samples of non-P450 group was collected at −10 and 65 min time point. Collected aliquots were extracted with acetonitrile solution containing an internal standard. The precipitated protein was spun down in centrifuge (2000 rpm, 15 min). The compound concentration in supernatant was measured by LC/MS/MS system.
The half-life value was obtained by plotting the natural logarithm of the peak area ratio of compounds/internal standard versus time. The slope of the line of best fit through the points yields the rate of metabolism (k). This was converted to a half-life value using following equations:
Exemplary compounds of the invention were tested (1 μM), and were incubated with 3.3 mM MgCl2 and 0.78 mg/mL HLM (HL101) in 100 mM potassium phosphate buffer (pH 7.4) at 37° C. on the 96-deep well plate. The reaction mixture was split into two groups, a non-P450 and a P450 group. NADPH was only added to the reaction mixture of the P450 group. An aliquot of samples of the P450 group was collected at 0, 10, 30, and 60 minute time points, where the 0 minute time point indicated the time when NADPH was added into the reaction mixture of the P450 group. An aliquot of samples of the non-P450 group was collected at −10 and 65 minute time points. Collected aliquots were extracted with an acetonitrile solution containing an internal standard. The precipitated protein was spun down in a centrifuge (2000 rpm, 15 rain). The compound concentration in supernatant was measured by LC/MS/MS system. The half-life value (T1/2) was obtained by plotting the natural logarithm of the peak area ratio of compounds/internal standard versus time. The slope of the line of best fit through the points yields the rate of metabolism (k). This was converted to a half-life value using following equations: Half-life=ln 2/k.

VR1 [3] = target: T1, VR1; test: Calcium uptake assay, low pH (proton) stimulus; type: cell-based; parameters: expressed in transfected cells; host or cells: T-REx HEK 293 (Invitrogen), pcDNA5/TO vector; settings: HEK293; 0.3 μM compound; low pH agonist; HEK 293 cells expressing hVR1; read-out: Low pH % Inhib. @ 0.3 μM
Target sequence in this assay (Q8NER1 whole entry): as the sequence (Q8NER1 whole entry, species assumed) above

VR1 [4] = target: T1, VR1; test: Calcium uptake assay, capsaicin stimulus; type: cell-based; parameters: expressed in transfected cells; host or cells: T-REx HEK 293 (Invitrogen), pcDNA5/TO vector; settings: 3 nM compound
Target sequence in this assay (Q8NER1 whole entry): as the sequence (Q8NER1 whole entry, species assumed) above

IC50 (VR1 [1]) | half-life at 1 μM [2] | inhibition at 0.3 µM (VR1 [3]) | inhibition of the Capsaicin induced intracellular calcium response (FIGS. 2-6) (VR1 [4]) | SMILES
4 nM |  | 89% |  | COc1c(C#CC(C)(C)C)ccc(C(=O)Nc2cccc3cnccc23)c1F [Compound 176]
 | 1.02 h | 102% |  | Cc1cc(C#CC(C)(C)C)ccc1C(=O)Nc1cnc2ccccc2c1 [Compound 181]
 | 0.64 h | 102% |  | Cc1cc(C#CC(C)(C)C)ccc1C(=O)Nc1ccc2c(c1)OC[C@@H](CO)N2 [Compound 184]
3 nM | 9.47 h | 98% | significant inhibition | Cc1cc(/C=C/C(F)(F)F)ccc1C(=O)Nc1cnc2ccccc2c1 [Compound 187]
 | 1.34 h | 83% |  | Cc1nc2cc(NC(=O)c3ccc(/C=C/C(F)(F)F)cc3C)ccc2s1 [Compound 188]
3 nM |  | 103% |  | O=C(Nc1ccc2c(c1)OC[C@H](CO)N2)c1ccc(/C=C/C(F)(F)F)cc1F [Compound 193]
3 nM |  | 102% |  | Cc1cc(C#CC(C)(C)C)ccc1C(=O)Nc1ccc2c(c1)OC[C@H](CO)N2 [Compound 194]
3 nM |  | 60% |  | Cc1cc(/C=C/C(F)(F)F)ccc1C(=O)Nc1ccc2c(c1)OC[C@H](CO)N2 [Compound 195]
3 nM |  | 107% |  | Cc1cc(C#CC(C)(C)C)ccc1C(=O)Nc1ccc2sc(CO)nc2c1 [Compound 197, N-(2-(hydroxymethyl)benzo[d]thiazol-5-yl)-2-methyl-4-(3,3-dimethylbut-1-ynyl)benzamide]
3 nM |  | 101% |  | Cc1cc(C#CC(C)(C)C)ccc1C(=O)Nc1ccc2scnc2c1 [Compound 198, N-(benzo[d]thiazol-5-yl)-2-methyl-4-(3,3-dimethylbut-1-ynyl)benzamide]
3 nM |  | 106% |  | Cc1cc(/C=C/C(C)(C)C)ccc1C(=O)Nc1cnc2ccccc2c1 [Compound 210]
3 nM |  | 74% |  | Cc1cc(C#CC(C)(C)C)ccc1C(=O)Nc1ccc2[nH]cnc2c1 [Compound 214]
 | 1.27 h | 100% |  | Cc1cc(/C=C/C(F)(F)F)ccc1C(=O)Nc1ccc2cc(CO)cnc2c1 [Compound 228]
3 nM |  | 100% | significant inhibition | Cc1cc(/C=C/C(F)(F)F)ccc1C(=O)Nc1cnc2c(c1)OCC(CO)N2 (stereo not shown) [Compound 233]

More lines, now with the values behind:

SMILES | IC50 (VR1 [1]) | half-life at 1 μM [2] | inhibition at 0.3 µM (VR1 [3]) | inhibition of the Capsaicin induced intracellular calcium response (FIGS. 2-6) (VR1 [4])
O=C(Nc1cccc2cnccc12)c1ccc(/C=C/C(F)(F)F)cc1 [Compound 35] | 2.5 nM | 0.49 h | 106% | 
O=C(Nc1cccc2cnccc12)c1ccc(C#CC(F)(F)F)cc1 [Compound 45] | 1 nM | 0.02 h | 99% | significant inhibition
C/C(=C\C(F)(F)F)c1ccc(C(=O)Nc2ccc3c(c2)OCCN3)cc1 [Compound 96] | 3 nM | 0.34 h | 99% | significant inhibition
O=C(Nc1ccc2c(c1)OC[C@@H](CO)O2)c1ccc(/C=C/C(F)(F)F)cc1 [Compound 107] | 5 nM |  | 116% | 
O=C(Nc1ccc2c(c1)OCC(CO)N2)c1ccc(/C=C/C(F)(F)F)cc1 (stereo not shown) [Compound 111] | 5 nM | 0.75 h | 116% | 
Cc1cc(/C=C/C(F)(F)F)ccc1C(=O)Nc1ccc2c(c1)OCCN2 [Compound 118] | 5 nM | 1.03 h | 103% | 
Cc1cc(C#CC2CC2)ccc1C(=O)Nc1ccc2c(c1)OCC(CO)N2 (stereo not shown) [Compound 124] |  | 1.01 h | 112% | 
Cc1cc(C#CC2CCCC2)ccc1C(=O)Nc1ccc2c(c1)OCC(CO)N2 (stereo not shown) [Compound 125] |  | 0.67 h | 112% | 
O=C(Nc1ccc2c(c1)OCC(CO)N2)c1ccc(C#CC2CCCC2)cc1F (stereo not shown) [Compound 126] |  | 1.86 h | 96% | 
O=C(Nc1ccc2c(c1)OCC(CO)N2)c1ccc(C#CC2CC2)cc1F (stereo not shown) [Compound 127] | 5 nM | 1.37 h | 100% | 
O=C(Nc1ccc2c(c1)OCC(CO)N2)c1c(F)cc(C#CC2CC2)cc1F (stereo not shown) [Compound 129] |  | 1.72 h | 104% | 
Cc1cc(/C=C/C(F)(F)F)ccc1C(=O)Nc1ccc2c(c1)OCC(CO)N2 (stereo not shown) [Compound 131] |  | 1.97 h | 104% | 
O=C(Nc1ccc2c(c1)OCCN2)c1ccc(/C=C/C(F)(F)F)cc1F [Compound 134] |  | 1.56 h | 108% | 
CC(C)(C)C#Cc1ccc(C(=O)Nc2ccc3c(c2)OCC(CO)N3)c(F)c1 (stereo not shown) [Compound 138] | 3 nM |  | 107% | 
O=C(Nc1ccc2c(c1)OCC(CO)N2)c1ccc(/C=C/C(F)(F)F)cc1F (stereo not shown) [Compound 144] |  | 1.18 h | 105% | 
O=C(Nc1ccc2c(c1)OCC(CO)N2)c1ccc(/C=C/C(F)(F)F)cc1Cl (stereo not shown) [Compound 157] |  | 1.37 h | 107% | 
CC(C)(C)C#Cc1ccc(C(=O)Nc2ccc3c(c2)OCC(CO)N3)c(Cl)c1 (stereo not shown) [Compound 158] |  | 1.43 h | 107% | 
O=C(Nc1cccc2cnccc12)c1ccc(/C=C/C(F)(F)F)cc1F [Compound 160] |  | 0.58 h | 96% | 
Cc1nc2cc(NC(=O)c3ccc(C#CC(C)(C)C)cc3C)ccc2s1 [Compound 162] |  | 1.43 h | 89% | 
Cc1cc(C#CC(C)(C)C)ccc1C(=O)Nc1cccc2cnccc12 [Compound 163] |  | 1.16 h | 98% | 
CC(C)(C)C#Cc1ccc(C(=O)Nc2cnc3ccccc3c2)c(Cl)c1 [Compound 164] |  | 2.03 h | 105% | 
CC(C)(C)C#Cc1cc(F)c(C(=O)Nc2cccc3cnccc23)c(F)c1 [Compound 166] | 8 nM |  | 99% | 
Cc1cc(C#CC(C)(C)C)ccc1C(=O)Nc1ccc2c(c1)OCC(CO)N2 (stereo not shown) [Compound 167] | 7 nM |  | 107% | significant inhibition
CC(C)(C)C#Cc1ccc(C(=O)Nc2ccc3c(c2)OC[C@@H](CO)N3)c(F)c1 [Compound 170] | 3 nM |  | 108% | 
CC(C)(C)C#Cc1ccc(C(=O)Nc2ccc3c(c2)OC[C@H](CO)N3)c(F)c1 [Compound 172] | 3 nM | 1.24 h | 109% | 
